Reference: publication PMC6269873, “Substituted 3-Benzylcoumarins as Allosteric MEK1 Inhibitors: Design, Synthesis and Biological Evaluation as Antiviral Agents” (Molecules, 2013)
Read-outs that look alike come from different tables or passages of the source.

Tests used:
EV71 [1] = assay: microbe, parasite or virus in culture; conditions: for EC50: Enterovirus A, EV71, HEK293
Procedure: (§1) To further examine the functional effects, we selected EV71 to perform the antiviral analysis. […] CC50 is the median cytotoxic concentration measured with the MTT assay.
(§2) RD cells were cultured in DMEM and up to 70%–80% confluence in 96-well plates. Compounds were added into the culture medium for 1 h prior to virus infection using four wells for each concentration used. The compounds were added at the following concentrations: 1.25, 2.5, 5, 10, 20, 40 μM. Then cells were infected withEV71 (a clinical strain denoted as EV71-BC08, GU475127) at a multiplicity of infection (MOI) of 1. Virus controls (untreated wells of infected cells), cell controls (cells and drugs only, using the same dilution range for each compound as the test wells) were included on the plate. The cytopathic effect (CPE) were examined at every 12 h intervals post-infection by using phase-contrast microscopy. […] The cytotoxicity (CC50) was assayed by the MTT method.

ERK pathway = assay: cells; type: cell-based, Human; conditions: for IC50: Homo sapiens, HEK293
Procedure: The effects of the inhibitors on the activation of ERK pathway were determined in TPA (12-O-tetradecanoylphorbol-13-acetate)-stimulated cells using the AP-1 luciferase reporter gene assay system. Activating protein-1 (AP-1) is the nuclear transcription factor which is a heterodimeric protein downstream of MAPK composed of dimers of the Fos and Jun proteins. The stable AP-1 dimers bind to DNA recognition elements (AP-1 response elements) and mediate transcriptional induction. AP-1 controls a number of cellular events including differentiation, proliferation and apoptosis. Simultaneously, the expression of AP-1 can be regulated in response to different extracellular stimuli, such as cytokines, growth factors, stress, and bacterial and viral infections. ERK pathway is the most important mediator which is closely related to these responses. Activation of ERK pathway causes induction of fos gene, and then the product heterodimerizes with the Jun protein to form the AP-1 dimers. These newly formed heterodimers can enhance the expression of c-jun through AP-1 binding sites in the c-jun promoter. TPA can increase levels of AP-1 proteins through activation of the ERK pathway.
3.4.2. AP-1 Luciferase Reporter Gene Assay
pAP1-Luc was constructed with pGL3-basic (Promega, Madison, WI. USA) and a fragment including the AP-1 response element (2× TRE) and T7 promoter. HEK 293 cells in 96-well plates were cultured at 5% CO2 at 37 °C in DMEM containing 10% FBS. When the confluence was up to 80%, cells were transinfected with pAP1-Luc using lipofectamine 2000 (Life Technologies, Carlsbad, CA. USA). At 24 h post transinfection, individual compounds with different concentrations (5, 10, 20, 30 μM) were added into cells using three wells for each concentration used. After incubation for 1 h, TPA (50 nM) was added. The cells were harvested after 4 h and luciferase activity was measured by using luciferase assay kit (Promega) with a luminometer.

phosphorylated MEK1 = phosphorylated MEK1 (Homo sapiens, UniProt Q02750); assay: MEK1 binding assay (HTRF, tracer displacement); conditions: for inhibition at 2 µM: read-out: % binding (2 µM); for inhibition at 20 µM: read-out: % binding (20 µM)
Chain of phosphorylated MEK1 (Q02750 whole entry): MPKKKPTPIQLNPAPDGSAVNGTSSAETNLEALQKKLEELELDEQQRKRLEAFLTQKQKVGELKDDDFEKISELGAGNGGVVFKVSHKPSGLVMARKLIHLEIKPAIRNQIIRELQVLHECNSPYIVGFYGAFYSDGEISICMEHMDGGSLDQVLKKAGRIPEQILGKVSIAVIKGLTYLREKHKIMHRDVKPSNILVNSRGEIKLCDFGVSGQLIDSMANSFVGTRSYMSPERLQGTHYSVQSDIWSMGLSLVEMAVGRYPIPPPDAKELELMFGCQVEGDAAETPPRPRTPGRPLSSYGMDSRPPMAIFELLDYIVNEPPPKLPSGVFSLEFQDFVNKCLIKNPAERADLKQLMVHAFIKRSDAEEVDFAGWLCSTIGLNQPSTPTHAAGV
Method in brief: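 5 nM GST-tagged phosphorylated MEK1, 2 nM Eu anti-GST antibody and 20 nM kinase tracer 236 incubated with compound 30 min at room temperature in the dark.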

EV71 [2] = assay: microbe, parasite or virus in culture; conditions: for EC50: Enterovirus A, EV71, RD
Procedure: as §1, §2

[3] = tested on: unphosphorylated human MEK1; design: method as in PMID 16199156; conditions: inhibition of activation of unphosphorylated human MEK1; cited from earlier work
[4] = HTRF binding to GST tagged phosphorylated MEK1, read-out: IC50

| SMILES | TI (CC50/IC50) (EV71 [1]) | EC50 (EV71 [1]) | inhibition of ERK pathway activation (in words) (ERK pathway) | IC50 (ERK pathway) | IC50 (phosphorylated MEK1) | inhibition at 2 µM (phosphorylated MEK1) | inhibition at 20 µM (phosphorylated MEK1) | TI (CC50/IC50) (EV71 [2]) | EC50 (EV71 [2]) | melting point | binding affinity (in words) (phosphorylated MEK1) | IC50 (phosphorylated MEK1; [4]) | IC50 [3] |
| --- | --- | --- | --- | --- | --- | --- | --- | --- | --- | --- | --- | --- | --- |
| Cc1c(Cc2ccccc2)c(=O)oc2cc(OC(=O)N(C)C)ccc12 [Compound 13, 3-Benzyl-4-methyl-2-oxo-2H-chromen-7-yl dimethylcarbamate] | 29.85 | 3.29 µM | more efficiently than U0126 | 5.4 ± 1.26 µM | 0.223 µM | 75.6% | 95.2% | 60.8 | 2.5 µM | 130 to 133 °C |  |  |  |
| Cc1c(Cc2ccc(F)cc2)c(=O)oc2cc(OC(=O)N(C)C)ccc12 [Compound 17, 3-(4-Fluorobenzyl)-4-methyl-2-oxo-2H-chromen-7-yl dimethylcarbamate] |  |  | more efficiently than U0126 | 4.06 ± 3.26 µM | 0.408 µM | 71.6% | 82.1% | 16.36 | 5.25 µM | 149 to 150 °C |  |  |  |
| CCc1c(Cc2ccc(F)cc2)c(=O)oc2cc(OC(=O)N(C)C)ccc12 [Compound 18, 4-Ethyl-3-(4-fluorobenzyl)-2-oxo-2H-chromen-7-yl dimethylcarbamate] | 3.37 | 19.4 µM | more efficiently than U0126 | 23.4 ± 1.11 µM | 0.0546 µM | 98.2% | 99.4% | 7.29 | 10 µM |  | active |  |  |
| CCCc1c(Cc2ccc(F)cc2)c(=O)oc2cc(OC(=O)N(C)C)ccc12 [Compound 19, 3-(4-Fluorobenzyl)-2-oxo-4-propyl-2H-chromen-7-yl dimethylcarbamate] | 65.24 | 4.85 µM | more efficiently than U0126 | 4.31 ± 2.14 µM | 0.158 µM | 66.2% | 87.6% | 190 | 3.98 µM | 82 to 84 °C |  |  |  |
| CCCc1c(Cc2ccc(F)cc2)c(=O)oc2cc(OC(C)=O)ccc12 [Compound 33, 3-(4-Fluorobenzyl)-2-oxo-4-propyl-2H-chromen-7-yl acetate] |  | 12.8 µM | more efficiently than U0126 | 11.6 ± 1.2 µM |  | 61.4% | 72.2% |  | 18.5 µM | 150 to 151 °C |  | 0.252 µM |  |
| CCC(=O)Oc1ccc2c(C)c(Cc3ccc(F)cc3)c(=O)oc2c1 [Compound 38, 3-(4-Fluorobenzyl)-4-methyl-2-oxo-2H-chromen-7-yl propionate] |  |  |  | 38.1 ± 1.26 µM |  | 75.7% | 90.8% |  |  | 115 to 116 °C |  | 0.19 µM |  |
| CCCc1c(Cc2ccc(F)cc2)c(=O)oc2cc(OC(=O)CC)ccc12 [Compound 40, 3-(4-Fluorobenzyl)-2-oxo-4-propyl-2H-chromen-7-yl propionate] |  |  |  | 87.5 ± 1.98 µM |  | 72.2% | 78.5% |  |  | 94 to 95 °C |  | 0.176 µM |  |
| CCCC(=O)Oc1ccc2c(C)c(Cc3ccccc3)c(=O)oc2c1 [Compound 42, 3-Benzyl-4-methyl-2-oxo-2H-chromen-7-yl butyrate] |  |  |  | 88.7 ± 2.52 µM |  | 53.8% | 68.4% |  |  | 139 to 140 °C |  | 0.353 µM |  |
| CCCC(=O)Oc1ccc2c(CC)c(Cc3ccccc3)c(=O)oc2c1 [Compound 43, 3-Benzyl-4-ethyl-2-oxo-2H-chromen-7-yl butyrateen-7-yl propionate] |  |  |  | 85.9 ± 1.46 µM |  | 45% | 54.7% |  |  | 102 °C |  | 0.473 µM |  |
| CCc1c(Cc2ccc(F)cc2)c(=O)oc2cc(OC(=O)c3ccccc3)ccc12 [Compound 67, 4-Ethyl-3-(4-fluorobenzyl)-2-oxo-2H-chromen-7-yl benzoate] |  |  |  | 64.6 ± 1.74 µM |  | 44.6% | 21.3% |  |  | 70 to 71 °C | inactive |  |  |
| Cc1c(Cc2ccc(F)cc2)c(=O)oc2cc(OC(=O)N(C)C)ccc12 [Compound G8935] |  |  |  |  |  |  |  |  |  |  |  |  | 0.3 µM |
